Values quoted from earlier work as cited in patent US20190231802A1, “CHEMOTHERAPEUTIC-RELEASING IMPLANTABLE STICK, METHODS OF MANUFACTURE AND PRECURSOR MATERIALS” (The Johns Hopkins University, priority 2016, published 2019).

Tested on: selected cancer cell lines
Conditions: compared to paclitaxel, topotecan, CPT-11, docetaxel, carboplatin and temozolomide; previous study [8]

Structure (SMILES): COc1cccc2c1C(=O)c1c(O)c3c(c(O)c1C2=O)C[C@@](O)(C(=O)CO)C[C@@H]3O[C@H]1C[C@H](N)[C@H](O)[C@H](C)O1 [Doxorubicin]
- IC50: relatively low IC50
